# Assay results published in patent US12037340B2, “Pentacyclic derivatives as Zika virus inhibitors” (Gilead Sciences, Inc., priority 2021, dated 2024).
# Tested on: ZIKV
# Assay: microbe, parasite or virus in culture
# Type: cell-based, Zika virus
# Conditions: 48 hrs
row,Compound,EC50 [nM]
1,"COC(=O)N[C@H](C(=O)N1[C@@H](C)CC[C@H]1c1nc(C2CC2)c(-c2ccc3c(c2)COc2cc4c(ccc5nc([C@@H]6CC[C@H](C)N6C(=O)[C@@H](NC(=O)OC)C(C)(C)C(F)(F)F)[nH]c54)cc2-3)[nH]1)C(C)(C)C(F)(F)F [Compound 41, methyl ((S)-1-((2S,5S)-2-(4-cyclopropyl-5-(2-((2S,5S)-5-methyl-1-((S)-4,4,4-trifluoro-2-((methoxycarbonyl)amino)-3,3-dimethylbutanoyl)pyrrolidin-2-yl)-1,11-dihydroisochromeno[4′,3′:6,7]naphtho[1,2-d]imidazol-9-yl)-1H-imidazol-2-yl)-5-methylpyrrolidin-1-yl)-4,4,4-trilluoro-3,3-dimethyl-1-oxobutan-2-yl)carbamate]",4.8
2,"COC(=O)N[C@H](C(=O)N1CCC[C@H]1c1nc(Cl)c(-c2ccc3c(c2)COc2cc4c(ccc5nc([C@@H]6CCCN6C(=O)[C@@H](NC(=O)OC)C(C)(C)C(F)(F)F)[nH]c54)cc2-3)[nH]1)C(C)(C)C(F)(F)F [Compound 29, methyl ((S)-1-((S)-2-(4-chloro-5-(2-((S)-1-((S)-4,4,4-trifluoro-2-((methoxycarbonyl)amino)-3,3-dimethylbutanoyl)pyrrolidin-2-yl)-1,11-dihydroisochromeno[4′,3′:6,7]naphtho[1,2-d]imidazol-9-yl)-1H-imidazol-2-yl)pyrrolidin-l-yl)-4,4,4-trifluoro-3,3-dimethyl-1-oxobutan-2-yl)carbamate]",11.4
3,"COC[C@H]1C[C@@H](c2nc(Cl)c(-c3ccc4c(c3)COc3cc5c(ccc6nc([C@@H]7CC[C@H](C)N7C(=O)[C@@H](NC(=O)OC)C(C)C)[nH]c65)cc3-4)[nH]2)N(C(=O)[C@@H](NC(=O)OC)C(C)(C)C(F)(F)F)C1 [Compound 20, methyl ((S)-1-((2S,5S)-2-(9-(4-chloro-2-((2S,4S)-4-(methoxymethyl)-1-((S)-4,4,4-trilluoro-2-((methoxycarbonyl)amino)-3,3-dimethylbutanoyl)pyrrolidin-2-yl)-1H-imidazol-5-yl)-1,11-dihydroisochromeno[4′,3′:6,7]naphtho[1,2-d]imidazol-2-yl)-5-methylpyrrolidin-1-yl)-3-methyl-1-oxobutan-2-yl)carbamate]",5.4
4,"COC(=O)N[C@H](C(=O)N1[C@H](c2nc(Cl)c(-c3ccc4c(c3)COc3cc5ccc6[nH]c([C@@H]7C[C@@H]8CCC[C@@H]8N7C(=O)[C@@H](NC(=O)OC)C(C)(C)C(F)(F)F)nc6c5cc3-4)[nH]2)C[C@@H]2CCC[C@@H]21)C(C)(C)C(F)(F)F [Compound 37, methyl ((S)-1-((2S,3aS,6aS)-2-(4-chloro-5-(2-((2S,3aS,6aS)-1-((S)-4,4,4-trifluoro-2-((methoxycarbonyl)amino)-3,3-dimethylbutanoyl)octahydrocyclopenta[b]pyrrol-2-yl)-1,11-dihydroisochromeno[4′,3′:6,7]naphtho[1,2-d]imidazol-9-yl)-1H-imidazol-2-yl)hexahydrocyclopenta[b]pyrrol-l(2H)-yl)-4,4,4-trilluoro-3,3-dimethyl-1-oxobutan-2-yl)carbamate]",13.3
5,"COC(=O)N[C@H](C(=O)N1[C@H](c2nc(Cl)c(-c3ccc4c(c3)COc3cc5c(ccc6nc([C@@H]7C[C@@H]8CCC[C@@H]8N7C(=O)[C@@H](NC(=O)OC)C(C)C)[nH]c65)cc3-4)[nH]2)C[C@@H]2CCC[C@@H]21)C(C)C [Compound 34, methyl ((S)-1-((2S,3aS,6aS)-2-(4-chloro-5-(2-((2S,3aS,6aS)-1-((methoxycarbonyl)-L-valyl)octahydrocyclopenta[b]pyrrol-2-yl)-1,11-dihydroisochromeno[4′,3′:6,7]naphtho[1,2-d]imidazol-9-yl)-1H-imidazol-2-yl)hexahydrocyclopenta[b]pyrrol-l(2H)-yl)-3-methyl-1-oxobutan-2-yl)carbamate]",30.6

# Same assay, conditions: Zika virus, Huh-7; 48 hrs
row,Compound,EC50 [nM]
1,"CC[C@@H](C)[C@H](NC(=O)OC)C(=O)N1CCC[C@H]1c1nc(Cl)c(-c2ccc3c(c2)COc2cc4c(ccc5nc([C@@H]6CCCN6C(=O)[C@@H](NC(=O)OC)[C@H](C)CC)[nH]c54)cc2-3)[nH]1 [Compound 28, methyl ((2S,3R)-1-((S)-2-(4-chloro-5-(2-((S)-1-((methoxycarbonyl)-L-alloisoleucyl)pyrrolidin-2-yl)-1,11-dihydroisochromeno[4′,3′:6,7]naphtho[1,2-d]imidazol-9-yl)-1H-imidazol-2-yl)pyrrolidin-1-yl)-3-methyl-1-oxopentan-2-yl)carbamate]",31.5
2,"COC(=O)N[C@H](C(=O)N1[C@@H](C)CC[C@H]1c1nc(C2CC2)c(-c2ccc3c(c2)COc2cc4c(ccc5nc([C@@H]6CC[C@H](C)N6C(=O)[C@@H](NC(=O)OC)C(C)C)[nH]c54)cc2-3)[nH]1)C(C)C [Compound 38, methyl ((S)-1-((2S,5S)-2-(4-cyclopropyl-5-(2-((2S,5S)-1-((methoxycarbonyl)-L-valyl)-5-methylpyrrolidin-2-yl)-1,11-dihydroisochromeno[4′,3′:6,7]naphtho[1,2-d]imidazol-9-yl)-1H-imidazol-2-yl)-5-methylpyrrolidin-1-yl)-3-methyl-1-oxobutan-2-yl)carbamate]",25.9
3,"CC[C@@H](C)[C@H](NC(=O)OC)C(=O)N1[C@@H](C)CC[C@H]1c1nc(C2CC2)c(-c2ccc3c(c2)COc2cc4c(ccc5nc([C@@H]6CC[C@H](C)N6C(=O)[C@@H](NC(=O)OC)[C@H](C)CC)[nH]c54)cc2-3)[nH]1 [Compound 40, methyl ((2S,3R)-1-((2S,5S)-2-(4-cyclopropyl-5-(2-((2S,5S)-1-((methoxycarbonyl)-L-alloisoleucyl)-5-methylpyrrolidin-2-yl)-1,11-dihydroisochromeno[4′,3′:6,7]naphtho[1,2-d]imidazol-9-yl)-1H-imidazol-2-yl)-5-methylpyrrolidin-1-yl)-3-methyl-1-oxopentan-2-yl)carbamate]",25.1
4,"CC[C@H](C)[C@H](NC(=O)OC)C(=O)N1C[C@@H](COC)C[C@H]1c1nc(Cl)c(-c2ccc3c(c2)COc2cc4c(ccc5nc([C@@H]6CC[C@H](C)N6C(=O)[C@@H](NC(=O)OC)C(C)C)[nH]c54)cc2-3)[nH]1 [Compound 14, methyl ((S)-1-((2S,5S)-2-(9-(4-chloro-2-((2S,4S)-1-((methoxycarbonyl)-L-isoleucyl)-4-(methoxymethyl)pyrrolidin-2-yl)-1H-imidazol-5-yl)-1,11-dihydroisochromeno[4′,3′:6,7]naphtho[1,2-d]imidazol-2-yl)-5-methylpyrrolidin-1-yl)-3-methyl-1-oxobutan-2-yl)carbamate]",9.7
5,"CC[C@H]1CC[C@@H](c2nc3ccc4cc5c(cc4c3[nH]2)OCc2cc(-c3[nH]c([C@@H]4CC[C@H](C)N4C(=O)[C@@H](NC(=O)OC)C(C)C)nc3Cl)ccc2-5)N1C(=O)[C@@H](NC(=O)OC)C1CCOCC1 [Compound 12, methyl ((S)-2-((2S,5S)-2-(9-(4-chloro-2-((2S,5S)-1-((methoxycarbonyl)-L-valyl)-5-methylpyrrolidin-2-yl)-1H-imidazol-5-yl)-1,11-dihydroisochromeno[4′,3′:6,7]naphtho[1,2-d]imidazol-2-yl)-5-ethylpyrrolidin-1-yl)-2-oxo-1-(tetrahydro-2H-pyran-4-yl)ethyl)carbamate]",12.1
6,"CC[C@@H](C)[C@H](NC(=O)OC)C(=O)N1[C@@H](C)CC[C@H]1c1nc(Cl)c(-c2ccc3c(c2)COc2cc4c(ccc5nc([C@@H]6CC[C@H](C)N6C(=O)[C@@H](NC(=O)OC)[C@H](C)CC)[nH]c54)cc2-3)[nH]1 [Compound 25, methyl ((2S,3R)-1-((2S,5S)-2-(4-chloro-5-(2-((2S,5S)-1-((methoxycarbonyl)-L-alloisoleucyl)-5-methylpyrrolidin-2-yl)-1,11-dihydroisochromeno[4′,3′:6,7]naphtho[1,2-d]imidazol-9-yl)-1H-imidazol-2-yl)-5-methylpyrrolidin-1-yl)-3-methyl-1-oxopentan-2-yl)carbamate]",8.3
7,"COC(=O)N[C@H](C(=O)N1[C@@H](C)CC[C@H]1c1nc(Cl)c(-c2ccc3c(c2)COc2cc4c(ccc5nc([C@@H]6CC[C@H](C)N6C(=O)[C@@H](NC(=O)OC)C(C)(C)C(F)(F)F)[nH]c54)cc2-3)[nH]1)C(C)(C)C(F)(F)F [Compound 24, methyl ((S)-1-((2S,5S)-2-(4-chloro-5-(2-((2S,5S)-5-methyl-1-((S)-4,4,4-trifluoro-2-((methoxycarbonyl)amino)-3,3-dimethylbutanoyl)pyrrolidin-2-yl)-1,11-dihydroisochromeno[4′,3′:6,7]naphtho[1,2-d]imidazol-9-yl)-1H-imidazol-2-yl)-5-methylpyrrolidin-1-yl)-4,4,4-trifluoro-3,3-dimethyl-1-oxobutan-2-yl)carbamate]",4.2
8,"COC[C@H]1C[C@@H](c2nc(Cl)c(-c3ccc4c(c3)COc3cc5c(ccc6nc([C@@H]7CC[C@H](C)N7C(=O)[C@@H](NC(=O)OC)C(C)C)[nH]c65)cc3-4)[nH]2)N(C(=O)[C@@H](NC(=O)OC)C(C)C)C1 [Compound 7, methyl ((S)-1-((2S,5S)-2-(9-(4-chloro-2-((2S,4S)-1-((methoxycarbonyl)-L-valyl)-4-(methoxymethyl)pyrrolidin-2-yl)-1H-imidazol-5-yl)-1,11-dihydroisochromeno[4′,3′:6,7]naphtho[1,2-d]imidazol-2-yl)-5-methylpyrrolidin-1-yl)-3-methyl-1-oxobutan-2-yl)carbamate]",39
9,"COC(=O)N[C@H](C(=O)N1[C@@H](C)CC[C@H]1c1nc(Cl)c(-c2ccc3c(c2)COc2cc4c(ccc5nc([C@@H]6CC[C@H](C)N6C(=O)[C@@H](NC(=O)OC)C6C[C@@H](C)O[C@H](C)C6)[nH]c54)cc2-3)[nH]1)C1CC(C)O[C@H](C)C1 (stereo in doubt) [Compound 9, methyl ((S)-2-((2S,5S)-2-(9-(4-chloro-2-((2S,5S)-1-((S)-2-((2R,6R)-2,6-dimethyltetrahydro-2H-pyran-4-yl)-2-((methoxycarbonyl)amino)acetyl)-5-methylpyrrolidin-2-yl)-1H-imidazol-5-yl)-1,11-dihydroisochromeno[4′,3′:6,7]naphtho[1,2-d]imidazol-2-yl)-5-methylpyrrolidin-1-yl)-1-((2R,6R)-2,6-dimethyltetrahydro-2H-pyran-4-yl)-2-oxoethyl)carbamate]",48.1
